Measured values taken from US9695155B2, “Herbicidal substituted pyrimidinyloxy benzene compounds” (E. I. DU PONT DE NEMOURS AND COMPANY, priority 2013, dated 2017).

Experiments:
wild oat = assay: Test C postemergence; assay type: in vivo, Avena fatua; conditions: Avena fatua, post-emergence
Method in brief: (§1)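 Seeds are planted in blended loam soil and sand and treated preemergence, while seedlings in a peat moss/vermiculite medium receive postemergence sprays at 2 to 18 cm height. All plants stay in the greenhouse for 13 to 15 days before visual comparison with controls on a 0–100 scale.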

corn = assay: Test A postemergence; assay type: in vivo, Zea mays; conditions: Zea mays, post-emergence, 240 h
Method in brief: (§2)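 Injury scores run from 0, no effect, to 100, complete control, judged by eye against untreated plants roughly 10 days after treatment. Chemicals carried a surfactant in a non-phytotoxic solvent and went onto loam–sand soil preemergence or onto one- to two-leaf seedlings postemergence.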

soybean = assay: Test C preemergence; assay type: in vivo, Glycine max; conditions: Glycine max, pre-emergence, preemergence, read-out: Soybean plant response rating
Method in brief: as §1

morningglory = assay: Test C preemergence; assay type: in vivo, Ipomoea coccinea; conditions: Ipomoea, pre-emergence, preemergence, read-out: Morningglory plant response rating
Method in brief: as §1

wheat, winter [1] = assay: Test C postemergence; assay type: in vivo, Triticum aestivum; conditions: Triticum aestivum, post-emergence
Method in brief: as §1

waterhemp = assay: Test C postemergence; assay type: in vivo, Amaranthus rudis; conditions: Amaranthus tuberculatus, post-emergence
Method in brief: as §1

wheat, winter [2] = assay: Test C preemergence; assay type: in vivo, Triticum aestivum; conditions: Triticum aestivum, pre-emergence, preemergence, read-out: Wheat plant response rating
Method in brief: as §1

ragweed [3] = assay: Test A postemergence; assay type: in vivo, Ambrosia elatior
Method in brief: as §2

yellow nutsedge = assay: Test C postemergence; assay type: in vivo, Cyperus esculentus; conditions: Cyperus, post-emergence
Method in brief: as §1

velvetleaf = assay: Test C preemergence; assay type: in vivo, Abutilon theophrasti; conditions: Abutilon theophrasti, pre-emergence, preemergence, read-out: Velvetleaf plant response rating
Method in brief: as §1

ragweed [4] = assay: Test C postemergence; assay type: in vivo, Ambrosia elatior; conditions: Ambrosia artemisiifolia, post-emergence
Method in brief: as §1

barnyardgrass [5] = assay: Test C postemergence; assay type: in vivo, Echinochloa crus-galli; conditions: Echinochloa crus-galli, post-emergence
Method in brief: as §1

kochia [6] = assay: Test A preemergence; assay type: in vivo, Kochia scoparia; conditions: 0 to 100 scale where 0 is no effect and 100 is complete control
Method in brief: as §2

kochia [7] = assay: Test A postemergence; assay type: in vivo, Kochia scoparia
Method in brief: as §2

Italian ryegrass = assay: Test C preemergence; assay type: in vivo, Lolium multiflorum; conditions: Lolium multiflorum, pre-emergence, preemergence, read-out: Ryegrass, Italian plant response rating
Method in brief: as §1

galium = assay: Test C postemergence; assay type: in vivo, Galium aparine; conditions: Galium, post-emergence
Method in brief: as §1

barnyardgrass [8] = assay: Test A postemergence; assay type: in vivo, Echinochloa crus-galli; conditions: Echinochloa crus-galli, post-emergence, 240 h
Method in brief: as §2

[9] = 31 g ai/ha, 0 to 100 scale, 0 no effect, 100 complete control
[10] = 16 g ai/ha, scale 0 to 100 (0 no effect, 100 complete control)
[11] = 62 g ai/ha, scale 0 (no effect) to 100 (complete control)
[12] = 125 g ai/ha, scale 0 (no effect) to 100 (complete control)
[13] = 125 g ai/ha, 0 to 100 scale where 0 is no effect and 100 is complete control

Fc1cccc(Oc2ncc(Cl)cn2)c1-n1cc(C(F)F)nn1 [Compound 141, 5-chloro-2-[2-[4-(difluoromethyl)-1H-1,2,3-triazol-1-yl]-3-fluorophenoxy]pyrimidine]
pest or weed control at 16 g/ha (wild oat; 16 g ai/ha, postemergence, 0 is no effect, 100 is complete control, read-out: Plant response rating (0 to 100), Oat, Wild): 0%
pest or weed control at 125 g/ha (wild oat; 125 g ai/ha, postemergence, visual rating, scale 0 to 100 (0 no effect, 100 complete control), read-out: Plant response rating, Oat, Wild): 30%
pest or weed control at 62 g/ha (wild oat; Postemergence, 62 g ai/ha, scale 0 to 100 (0 no effect, 100 complete control), read-out: Plant response rating, Oat, Wild): 10%
Corn plant response rating (crop injury, 0 = no effect, 100 = complete kill) at 31 g/ha (corn; [9]): 30%
plant injury at 125 g/ha (corn; 125 g ai/ha, 0 to 100 scale where 0 is no effect and 100 is complete control, read-out: Corn plant response rating): 60%
plant injury at 16 g/ha (soybean; [10]): 65%
plant injury at 62 g/ha (soybean; [11]): 90%
plant injury at 125 g/ha (soybean; [12]): 98%
pest or weed control at 16 g/ha (morningglory; [10]): 75%
pest or weed control at 62 g/ha (morningglory; [11]): 100%
pest or weed control at 125 g/ha (morningglory; [12]): 100%
plant injury at 16 g/ha (wheat, winter [1]; 16 g ai/ha, postemergence, 0 is no effect, 100 is complete control, read-out: Plant response rating (0 to 100), Wheat): 0%
plant injury at 125 g/ha (wheat, winter [1]; 125 g ai/ha, postemergence, visual rating, scale 0 to 100 (0 no effect, 100 complete control), read-out: Plant response rating, Wheat): 25%
plant injury at 62 g/ha (wheat, winter [1]; Postemergence, 62 g ai/ha, scale 0 to 100 (0 no effect, 100 complete control), read-out: Plant response rating, Wheat): 5%
pest or weed control at 16 g/ha (waterhemp; 16 g ai/ha, postemergence, 0 is no effect, 100 is complete control, read-out: Plant response rating (0 to 100), Waterhemp): 85%
pest or weed control at 125 g/ha (waterhemp; 125 g ai/ha, postemergence, visual rating, scale 0 to 100 (0 no effect, 100 complete control), read-out: Plant response rating, Waterhemp): 100%
pest or weed control at 62 g/ha (waterhemp; Postemergence, 62 g ai/ha, scale 0 to 100 (0 no effect, 100 complete control), read-out: Plant response rating, Waterhemp): 100%
plant injury at 16 g/ha (wheat, winter [2]; [10]): 0%
plant injury at 62 g/ha (wheat, winter [2]; [11]): 40%
plant injury at 125 g/ha (wheat, winter [2]; [12]): 60%
Plant response rating, Ragweed (ragweed [3]; [9]): 80
Ragweed plant response rating (ragweed [3]; [13]): 100
pest or weed control at 16 g/ha (yellow nutsedge; 16 g ai/ha, postemergence, 0 is no effect, 100 is complete control, read-out: Plant response rating (0 to 100), Nutsedge, Yellow): 10%
pest or weed control at 125 g/ha (yellow nutsedge; 125 g ai/ha, postemergence, visual rating, scale 0 to 100 (0 no effect, 100 complete control), read-out: Plant response rating, Nutsedge, Yellow): 15%
pest or weed control at 62 g/ha (yellow nutsedge; Postemergence, 62 g ai/ha, scale 0 to 100 (0 no effect, 100 complete control), read-out: Plant response rating, Nutsedge, Yellow): 15%
pest or weed control at 16 g/ha (velvetleaf; [10]): 100%
pest or weed control at 62 g/ha (velvetleaf; [11]): 100%
pest or weed control at 125 g/ha (velvetleaf; [12]): 100%
pest or weed control at 16 g/ha (ragweed [4]; 16 g ai/ha, postemergence, 0 is no effect, 100 is complete control, read-out: Plant response rating (0 to 100), Ragweed): 80%
pest or weed control at 125 g/ha (ragweed [4]; 125 g ai/ha, postemergence, visual rating, scale 0 to 100 (0 no effect, 100 complete control), read-out: Plant response rating, Ragweed): 90%
pest or weed control at 62 g/ha (ragweed [4]; Postemergence, 62 g ai/ha, scale 0 to 100 (0 no effect, 100 complete control), read-out: Plant response rating, Ragweed): 98%
pest or weed control at 16 g/ha (barnyardgrass [5]; 16 g ai/ha, postemergence, 0 is no effect, 100 is complete control, read-out: Plant response rating (0 to 100), Barnyardgrass): 15%
pest or weed control at 125 g/ha (barnyardgrass [5]; 125 g ai/ha, postemergence, visual rating, scale 0 to 100 (0 no effect, 100 complete control), read-out: Plant response rating, Barnyardgrass): 40%
pest or weed control at 31 g/ha (barnyardgrass [5]; Postemergence, 31 g ai/ha, scale 0 to 100 (0 no effect, 100 complete control), 13 to 15 days, read-out: Plant response rating, Barnyardgrass): 15%
pest or weed control at 62 g/ha (barnyardgrass [5]; Postemergence, 62 g ai/ha, scale 0 to 100 (0 no effect, 100 complete control), read-out: Plant response rating, Barnyardgrass): 20%
Plant response rating, Kochia (kochia [6]; 31 g ai/ha, visual, approximately 10 days): 100
Plant response rating, Kochia (kochia [6]; 125 g ai/ha): 100
Plant response rating, Kochia (kochia [7]; [9]): 100
Kochia plant response rating (kochia [7]; [13]): 100
pest or weed control at 16 g/ha (Italian ryegrass; [10]): 40%
pest or weed control at 62 g/ha (Italian ryegrass; [11]): 75%
pest or weed control at 125 g/ha (Italian ryegrass; [12]): 100%
pest or weed control at 16 g/ha (galium; 16 g ai/ha, postemergence, 0 is no effect, 100 is complete control, read-out: Plant response rating (0 to 100), Galium): 90%
pest or weed control at 125 g/ha (galium; 125 g ai/ha, postemergence, visual rating, scale 0 to 100 (0 no effect, 100 complete control), read-out: Plant response rating, Galium): 100%
pest or weed control at 62 g/ha (galium; Postemergence, 62 g ai/ha, scale 0 to 100 (0 no effect, 100 complete control), read-out: Plant response rating, Galium): 98%
pest or weed control at 31 g/ha (barnyardgrass [8]; 31 g ai/ha, 0 to 100 scale, 0 no effect, 100 complete control, read-out: Plant response rating, Barnyardgrass): 60%
pest or weed control at 125 g/ha (barnyardgrass [8]; 125 g ai/ha, 0 to 100 scale where 0 is no effect and 100 is complete control, read-out: Barnyardgrass plant response rating): 100%
